We go through 31 molecules from PubChem BioAssay (NCI).

What all share (assay): NCI tumour cell line growth inhibition, 48 h
The test system of assay [1] is A549 NSCLC.
The subject of assay [2] is IGROV1 ovarian.
Assay [3] relates to LOX IMVI melanoma.
Assay [4] deals with NCI-H23 lung.
Assay [5] concerns OVCAR-5 ovarian.
Assay [6] concerns SW-620 colon.
The test system of assay [7] is TK-10 renal.
Assay [8] deals with U251 CNS.
Assay [9] deals with T-47D breast.

Each structure is given as a SMILES string.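 These data come from cells grown in 96-well plates and exposed to compound for 48 hours at five concentrations. Abbreviation: GI50, concentration required for 50% inhibition of growth. TGI is the concentration that stops growth completely.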

For the molecule `CC(C)(C)C(=CS(=O)/N=C/c1ccccc1)C(C)(C)C` (centres undefined), the TGI in [1] was > 100 µM; in [2], 71.2 µM; in assay [3], 35.4 µM; in assay [4], > 100 µM; in assay [5] it was > 100 µM; in assay [6] it was > 100 µM. The TGI in assay [7] was > 100 µM; in assay [8], 84.7 µM.
As to `CCCC(=O)N[C@H]1C2C3CC4C5CC(C42)C1(C)C53` (some centres undefined), the TGI in assay [1], in assay [2], in assay [3], in assay [5], in assay [6] and in assay [7] was > 100 µM throughout. The TGI in assay [8] is > 100 µM.
`CC(C)CCCC(C)[C@H]1CCC2[C@@H]3CCC4Nc5c(cnn5-c5ccccc5)C[C@]4(C)C3CC[C@@]21C` (some centres undefined): the TGI in assay [1], in assay [2], in assay [4], in assay [5], in assay [6] and in assay [7] was > 100 µM throughout. For the same molecule, the TGI in assay [8] is > 100 µM.
Turning to `C[Si](C)(C)/C=C\CCO`, the TGI in assay [1], in assay [2], in assay [3], in assay [4], in assay [5] and in assay [6] was > 100 µM each time. The TGI in [7] and in assay [8] was > 100 µM throughout.
As for `CC(=O)O[C@]1(C)OC(=O)[C@@H](CC(C)C)N1[N+](=O)[O-]`, the TGI in assay [1], in [2], in assay [3], in assay [4], in [5] and in [6] was > 100 µM each time. Further, the TGI in assay [7] and in assay [8] was > 100 µM each time.
Regarding `CC(=O)[O-].[Mn+3].[O-]c1ccccc1C=NCCNCCN=Cc1ccccc1[O-]`, the GI50 in assay [1], in [2], in [3], in assay [4], in assay [7] and in assay [8] was > 100 µM throughout. Moreover, the TGI in assay [1], in assay [2], in assay [3], in assay [4], in [7] and in [8] was > 100 µM each time.
Take `c1ccc2c(-c3nc(-c4c[nH]c5ccncc45)cs3)c[nH]c2c1`: the GI50 in [1] is 2.45 µM; in assay [2] it was 1.33 µM; in assay [4], 1.85 µM; in assay [5] it was 2.59 µM; in assay [6] it was 1.73 µM; in assay [7] it was 2.76 µM. The GI50 in assay [8] is 1.93 µM. The TGI in [1] is 6.21 µM; in [2], 3.83 µM; in [4], 5 µM; in assay [5] it was 6.63 µM; in [6], 3.54 µM; in assay [7] it was 4.74 µM. In addition, the TGI in assay [8] is 3.58 µM.
Regarding `O=c1ncccn1C1OC(CO)C(O)C1O` (centres undefined), the TGI in assay [1], in assay [2], in [3], in assay [4], in [5] and in assay [6] was > 100 µM each time. The TGI in assay [7] and in [8] was > 100 µM each time.
Consider `CN1CCc2c1nc(-c1ccc(Cl)cc1)c1c2N(C)CC1`, for which the TGI in [1] was > 100 µM; in assay [2], > 100 µM; in assay [3] it was 22.5 µM; in assay [4], 49.9 µM; in [5], 73.3 µM; in assay [6], > 100 µM. For the same molecule, the TGI in assay [7] was 92.6 µM; in assay [8], 22.5 µM.
As for `CC(=O)OCC(=O)[C@@]12OC(C)(C)O[C@@H]1C[C@H]1[C@@H]3CC(C=O)=C4C=C(OCCCl)CC[C@]4(C)[C@@]3(F)[C@@H](O)C[C@@]12C`, the TGI in assay [1] was > 100 µM; in assay [2] it was > 100 µM; in assay [3] it was > 100 µM; in assay [4] it was 42.2 µM; in assay [5] it was > 100 µM; in [6], > 100 µM. Besides, the TGI in assay [7] is > 100 µM; in assay [8], 48.5 µM.
For the molecule `NNC(=O)C(=O)N/N=C1\CCC(=O)CC1C(=O)CCC(=O)Nc1ccc(Cl)cc1` (centres undefined), the TGI in assay [1], in [2], in [3], in [4], in assay [5] and in assay [6] was > 100 µM each time. Also, the TGI in [7] and in [8] was > 100 µM throughout.
`N.N.N.N.N.O=[N+]([O-])[O-].[Co+3].[O-][Cl+3]([O-])([O-])[O-]`: the GI50 in assay [1], in [2], in assay [3], in assay [4], in assay [5] and in assay [6] was > 100 µM in each case. Further, the GI50 in assay [7] and in [8] was > 100 µM in each case. Besides, the TGI in assay [1], in [2], in [3], in assay [4], in assay [5] and in assay [6] was > 100 µM in each case. For the same molecule, the TGI in assay [7] and in assay [8] was > 100 µM in each case.
On to `C[C@]12CC[C@H](O)CC1=CC[C@@H]1C2CC[C@]2(C)Nc3c(cnn3-c3ccccc3)CC12` (some centres undefined), for which the TGI in assay [1] amounted to 37 µM; in assay [2], 33.3 µM; in assay [4] it was 63 µM; in assay [5] it was 17.3 µM; in [6] it was 8.22 µM; in assay [7], 83.2 µM. The molecule also showed a TGI in [8] of 14.9 µM.
Regarding `N/N=C1\C(=O)N(c2ccc(Cl)cc2Cl)C(=O)C(=O)C1c1nc2ccccc2o1` (centres undefined), the TGI in assay [1], in assay [2], in assay [3], in [4], in assay [5] and in assay [6] was > 100 µM each time. The TGI in assay [7] and in [8] was > 100 µM each time.
Regarding `CC(C)OP(=O)(OC(C)C)/C(N)=N/Nc1ccc([N+](=O)[O-])cc1`, the TGI in assay [1], in assay [3], in [4], in [5], in [6] and in assay [7] was > 100 µM in each case. Also, in assay [8], the TGI is > 100 µM.
Consider `C#Cc1c(C)c(/C=C/C(C)=C/C(=O)OC)n(C)c1C`, for which the TGI in assay [1], in assay [2], in assay [3], in assay [4], in assay [5] and in assay [6] was > 100 µM throughout. For the same molecule, the TGI in assay [7] and in [8] was > 100 µM in each case.
For the molecule `Cc1ccc(S(=O)(=O)c2ccccc2[N+](=O)[O-])cc1`, the TGI in [1], in assay [2], in assay [4], in [5], in assay [6] and in [7] was > 100 µM throughout. In assay [8], the TGI is > 100 µM.
As to `O=C1/C(=C/c2ccccc2)CN(C(=O)CCN2CCCC2)C/C1=C\c1ccccc1`, the TGI stood at 14.6 µM in assay [1]; 7.75 µM in assay [2]; 1.85 µM in [3]; 4.35 µM in [4]; 7.7 µM in assay [5]; 0.511 µM in assay [6]. In addition, the TGI in assay [9] came to 5.61 µM; in assay [7], 8.62 µM; in [8] it was 2.51 µM.
As to `O=C(O)CCNCCCCNCCC(=O)O`, the TGI in assay [1], in assay [2], in [3], in assay [4], in assay [5] and in [6] was > 100 µM throughout. In addition, the TGI in [7] and in assay [8] was > 100 µM throughout.
Regarding `C=CCO/N=C(\OC(=O)c1ccc([N+](=O)[O-])cc1)c1ccccc1`, the TGI in assay [1], in assay [2], in assay [4], in [5], in assay [6] and in [7] was > 100 µM each time. The TGI in [8] was > 100 µM.
Turning to `COc1ccc(C(=O)C(CC2C(=O)NC(=O)NC2=O)c2ccc(OC)cc2)cc1` (centres undefined), the TGI in [1], in assay [2], in assay [3], in assay [4], in assay [5] and in [6] was > 100 µM throughout. In addition, the TGI in assay [7] and in assay [8] was > 100 µM in each case.
Regarding `c1ccc2c(c1)oc1ccc3nsnc3c12`, the TGI in assay [1] was > 100 µM; in [2] it was > 100 µM; in assay [3] it was > 10 µM; in assay [4], > 100 µM; in assay [5] it was > 100 µM; in assay [6], > 100 µM. For the same molecule, the TGI in [7] was > 10 µM.
As to `C=CCC1=C(C)C[C@@H]2CCC(=O)C=C12`, the TGI in [1], in assay [2], in assay [3], in [4], in assay [5] and in [6] was > 100 µM each time. Besides, the TGI in assay [7] and in [8] was > 100 µM in each case.
For `COC(=O)c1c2c(cc3c1CC1(Cc4cc5c(c(C(C)=O)c4C1)CCC5)C3)CCC2` (centres undefined), the TGI in [1], in assay [2], in [3], in assay [4], in assay [5] and in assay [6] was > 100 µM in each case. Moreover, the TGI in [7] and in [8] was > 100 µM throughout.
With `Cc1cc(N(CCC#N)CCC#N)ccc1N=Nc1ccc(Br)cc1`, the TGI in [1] is > 45.9 µM; in assay [2], > 57.3 µM; in [3], > 47.1 µM; in assay [4], > 51.3 µM; in assay [5], > 100 µM; in assay [6] it was > 100 µM. Moreover, the results for the TGI in assay [7] and in [8] were 39.8 µM and > 53 µM, respectively.
Take `Cc1cccc(C)c1NC(=O)CCc1nc(=S)[nH][nH]1`: the TGI in assay [1], in [2], in assay [3], in [4], in assay [5] and in [6] was > 100 µM in each case. For the same molecule, the TGI in [7] and in [8] was > 100 µM each time.
For `CC1=NN(C(=O)c2ccc(Cl)cc2)C(=O)/C1=C/c1ccccc1O`, the TGI in assay [1], in [2], in assay [3], in [4], in [5] and in assay [6] was > 100 µM in each case. Moreover, the TGI in assay [7] and in assay [8] was > 100 µM in each case.
On to `CCOC(=O)N1CCc2cc(OC)c(OC)cc2/C1=C\c1ccc(OC)c(OC)c1`, for which the TGI in assay [1] was 80.5 µM; in assay [2], > 100 µM; in [3] it was 40.3 µM; in assay [4], > 100 µM; in [5] it was > 100 µM; in [6], > 100 µM. The figures for the TGI in assay [7] and in [8] were 73.9 µM and 92.9 µM, respectively.
As to `COC(=O)CC(NC(=O)OCc1ccccc1)C(C(=O)OCc1ccccc1)C(C)(OC)OC` (centres undefined), the TGI is 85.1 µM in assay [1]; > 100 µM in assay [2]; 52.7 µM in assay [3]; 74.7 µM in [4]; > 100 µM in [6]; > 100 µM in assay [7]. Also, in assay [8], the TGI was > 100 µM.
Turning to `O=C1C=CC(=O)c2c(O)c(NCCOCCO)c(Cl)c(O)c21`, the TGI in [1] is 19.1 µM; in [2] it was 18.1 µM; in assay [3], 16.7 µM; in assay [4] it was 3.51 µM; in assay [5], 34.1 µM; in assay [6] it was 11 µM. The TGI is 26.6 µM in [7] and 30.7 µM in assay [8].
As to `CC1CCSC(N(C(=O)N(C)c2ccccc2)c2ccccc2)=N1` (centres undefined), the TGI in assay [1], in assay [2], in assay [3], in assay [4], in assay [5] and in [6] was > 100 µM each time. The TGI in assay [7] and in [8] was > 100 µM each time.
